Experimental data from the supplement of paper PMC10307832.

What was measured:
Test in all cases: relative viability (nuclei count vs DMSO), 5 days (fraction); higher = more cells survive
AZD6482 + Dasatinib = compound: Cc1cc([C@@H](C)Nc2ccccc2C(=O)O)c2nc(N3CCOCC3)cc(=O)n2c1 [AZD6482] + Cc1nc(Nc2ncc(C(=O)Nc3c(C)cccc3Cl)s2)cc(N2CCN(CCO)CC2)n1 [Dasatinib] (partner 0.075 µM)
Summary of the method: (§1)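 Lung cancer cell lines were seeded in 1536-well plates and dosed by pin tool the next day, with either a single drug or a fixed anchor-drug dose combined with five library-drug doses (not always all listed) spaced in √10 steps. Five days later, one step fixed the cells and stained their nuclei (final 0.05% Triton X-100, 1% formaldehyde, 1 ug/ml Hoechst), and nuclei were counted on 4× images. Relative viability is the nuclei count in treated wells divided by the count in vehicle wells, and each value is the median of duplicate plates.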

AZD6482 + Vorinostat = compound: Cc1cc([C@@H](C)Nc2ccccc2C(=O)O)c2nc(N3CCOCC3)cc(=O)n2c1 [AZD6482] + O=C(CCCCCCC(=O)Nc1ccccc1)NO [Vorinostat] (partner 1 µM)
Summary of the method: as §1

AZD6482 + Decitabine = compound: Cc1cc([C@@H](C)Nc2ccccc2C(=O)O)c2nc(N3CCOCC3)cc(=O)n2c1 [AZD6482] + Nc1ncn([C@H]2C[C@H](O)[C@@H](CO)O2)c(=O)n1 [Decitabine] (partner 2 µM)
Summary of the method: as §1

[1] = compound: COc1cc2nc(N3CCCN(C)CC3)nc(NC3CCN(Cc4ccccc4)CC3)c2cc1OC + O=C(CCCCCCC(=O)Nc1ccccc1)NO [Vorinostat] (partner 1 µM)
Summary of the method: as §1

Cell Line | relative viability (AZD6482 + Dasatinib; first compound 0.08 µM) | relative viability (AZD6482 + Dasatinib; first compound 0.253 µM) | relative viability (AZD6482 + Dasatinib; first compound 0.8 µM) | relative viability (AZD6482 + Dasatinib; first compound 2.53 µM) | relative viability (AZD6482 + Dasatinib; first compound 8 µM) | relative viability (AZD6482 + Vorinostat; first compound 0.08 µM) | relative viability (AZD6482 + Vorinostat; first compound 0.253 µM) | relative viability (AZD6482 + Vorinostat; first compound 0.8 µM) | relative viability (AZD6482 + Vorinostat; first compound 2.53 µM) | relative viability (AZD6482 + Vorinostat; first compound 8 µM) | relative viability (AZD6482 + Decitabine; first compound 0.08 µM) | relative viability (AZD6482 + Decitabine; first compound 0.253 µM) | relative viability (AZD6482 + Decitabine; first compound 0.8 µM) | relative viability (AZD6482 + Decitabine; first compound 2.53 µM) | relative viability (AZD6482 + Decitabine; first compound 8 µM) | relative viability ([1]; first compound 0.2 µM) | relative viability ([1]; first compound 0.6325 µM) | relative viability ([1]; first compound 2 µM) | relative viability ([1]; first compound 6.325 µM)
NCI-H1734 | 0.459 | 0.406 | 0.424 | 0.267 | 0.338 | 0.804 | 0.68 | 0.801 | 0.52 | 0.582 | 0.508 | 0.476 | 0.463 | 0.407 | 0.435 | 0.813 | 0.76 | 0.778 | 0.717
HOP-62 | 0.428 | 0.528 | 0.572 | 0.299 | 0.349 | 0.613 | 0.583 | 0.615 | 0.408 | 0.473 | 0.197 | 0.239 | 0.229 | 0.265 | 0.209 | 0.658 | 0.366 | 0.638 | 0.435
LOU-NH91 | 0.394 | 0.486 | 0.577 | 0.406 | 0.376 | 0.852 | 0.92 | 0.834 | 0.602 | 0.712 | 0.753 | 0.828 | 0.788 | 0.661 | 0.7 | 0.942 | 1.06 | 0.845 | 0.827
ChaGo-K-1 | 0.647 | 0.501 | 0.79 | 0.589 | 0.532 | 0.752 | 0.7 | 0.744 | 0.708 | 0.773 | 0.502 | 0.494 | 0.489 | 0.481 | 0.534 | 0.784 | 0.749 | 0.779 | 0.717
PC-14 | 0.245 | 0.281 | 0.239 | 0.197 | 0.16 | 0.667 | 0.716 | 0.712 | 0.487 | 0.769 | 0.225 | 0.174 | 0.273 | 0.315 | 0.271 | 0.674 | 0.674 | 0.625 | 0.0432
NCI-H1437 | 0.599 | 0.316 | 0.44 | 0.282 | 0.244 | 0.955 | 0.921 | 0.997 | 0.738 | 0.468 | 0.572 | 0.523 | 0.607 | 0.572 | 0.407 | 0.871 | 0.778 | 0.982 | 0.734
NCI-H460 | 0.414 | 0.404 | 0.562 | 0.241 | 0.215 | 0.599 | 0.797 | 0.895 | 0.344 | 0.594 | 0.445 | 0.38 | 0.618 | 0.452 | 0.395 | 0.834 | 0.72 | 0.659 | 0.603
NCI-H1666 | 0.801 | 0.845 | 0.906 | 0.737 | 0.946 | 0.848 | 1.04 | 1.04 | 0.813 | 1.02 | 0.72 | 0.687 | 0.715 | 0.645 | 0.642 | 1.08 | 0.943 | 0.958 | 1.06
SW 900 | 0.446 | 0.419 | 0.462 |  | 0.252 | 0.38 | 0.357 | 0.528 | 0.328 | 0.402 | 0.412 | 0.419 | 0.45 | 0.418 | 0.434 | 0.365 | 0.713 | 0.565 | 0.375
NCI-H1651 | 0.335 | 0.435 | 0.401 | 0.337 | 0.307 | 0.602 | 0.502 | 0.56 | 0.464 | 0.524 | 0.627 | 0.429 | 0.572 | 0.446 | 0.482 | 0.56 | 0.617 | 0.561 | 0.548
NCI-H1755 | 0.299 | 0.379 | 0.385 | 0.288 | 0.299 | 0.691 | 0.638 | 0.742 | 0.495 | 0.566 | 0.709 | 0.733 | 0.749 | 0.668 | 0.6 | 0.777 | 0.67 | 0.759 | 0.573
NCI-H661 | 0.75 | 0.857 | 0.967 | 0.502 | 0.489 | 0.794 | 0.825 | 0.914 | 0.736 | 0.846 | 0.557 | 0.569 | 0.571 | 0.498 | 0.422 | 0.763 | 0.774 | 0.833 | 0.807
HARA | 0.268 | 0.302 | 0.232 | 0.188 | 0.157 | 0.557 | 0.574 | 0.465 | 0.357 | 0.437 | 0.495 | 0.511 | 0.455 | 0.43 | 0.602 | 0.584 | 0.63 | 0.515 | 0.51
NCI-H596 | 0.7 | 0.586 | 0.601 | 0.514 | 0.642 | 0.464 | 0.555 | 0.732 | 0.691 | 0.556 | 0.865 | 0.937 | 0.972 | 1.01 | 0.946 | 0.623 | 0.717 | 0.591 | 0.57
NCI-H23 | 0.746 | 0.952 | 0.511 | 0.572 | 0.368 | 0.542 | 0.516 | 0.617 | 0.374 | 0.407 | 0.309 | 0.288 | 0.32 | 0.312 | 0.304 | 0.571 | 0.597 | 0.576 | 0.471
LCLC-97TM1 | 0.87 | 0.711 | 0.869 | 0.611 | 0.486 | 0.616 | 0.703 | 0.565 |  | 0.583 | 0.218 | 0.204 | 0.196 |  | 0.213 | 0.801 | 0.649 | 1 | 0.69
EPLC-272H | 0.253 | 0.291 | 0.311 | 0.172 | 0.124 | 0.466 | 0.397 | 0.474 | 0.256 | 0.252 | 0.313 | 0.325 | 0.321 | 0.216 | 0.341 | 0.423 | 0.4 | 0.38 | 0.335
